Among the targets are DRB3*0101 (Homo sapiens, UniProt P01903+P79483); DRB4*0101 (Homo sapiens, UniProt P01903+P13762, G164S); DRB5*0101 (Homo sapiens, UniProt P01903+Q30154).
Test in all cases: biochemical
Format in all cases: binding

Where no end group is shown, it is not given here.

20 compounds from article PMC3794980, “Identification of Conserved and HLA Promiscuous DENV3 T-Cell Epitopes” (PLoS Neglected Tropical Diseases, 2013) can be followed below.

Consider `CC[C@H](C)[C@H](N)C(=O)N[C@@H](CO)C(=O)N[C@@H](Cc1ccc(O)cc1)C(=O)NCC(=O)NCC(=O)NCC(=O)N[C@@H](Cc1c[nH]c2ccccc12)C(=O)N[C@@H](CCCNC(=N)N)C(=O)N[C@@H](CC(C)C)C(=O)N[C@@H](CO)C(=O)N[C@@H](C)C(=O)N[C@@H](CCC(N)=O)C(=O)N[C@@H](Cc1c[nH]c2ccccc12)C(=O)N[C@@H](CCC(N)=O)C(=O)N[C@@H](CCCCN)C(=O)O` [NS3 77-91], for which the IC50 on DRB3*0101 is 2.02 µM; at DRB4*0101, 0.708 µM.

At DRB4*0101, `CC[C@H](C)[C@H](NC(=O)[C@H](CCCCN)NC(=O)[C@H](CCCCN)NC(=O)[C@H](CCC(=O)O)NC(=O)[C@H](CC(C)C)NC(=O)[C@@H]1CCCN1C(=O)[C@H](Cc1c[nH]cn1)NC(=O)[C@@H]1CCCN1)C(=O)N[C@H](C(=O)N[C@@H](CCC(N)=O)C(=O)N[C@@H](Cc1c[nH]c2ccccc12)C(=O)N[C@@H](CC(C)C)C(=O)N[C@@H](CCC(=O)O)C(=O)N[C@H](C(=O)N[C@@H](CCCCN)C(=O)NCC(=O)N[C@H](C(=O)O)C(C)C)[C@@H](C)O)[C@@H](C)O` [NS5 636-652] showed an IC50 of 3.83 µM. That is a single-digit micromolar value.

As to `CC[C@H](C)[C@H](NC(=O)[C@@H]1CCCN1C(=O)CNC(=O)[C@H](C)NC(=O)[C@H](CC(C)C)NC(=O)[C@H](CO)NC(=O)[C@H](CCCCN)NC(=O)[C@@H]1CCCN1C(=O)[C@@H](NC(=O)[C@@H](NC(=O)[C@H](CCSC)NC(=O)[C@H](CC(=O)O)NC(=O)[C@H](CO)NC(=O)[C@H](CCC(=O)O)NC(=O)[C@@H](N)CC(C)C)[C@@H](C)CC)[C@@H](C)CC)C(=O)O` [NS1 237-251], the IC50 against DRB3*0101 was found to be 2.71 µM; against DRB5*0101, 14.8 µM.

As for `CC(C)C[C@H](NC(=O)[C@H](CCCNC(=N)N)NC(=O)[C@H](CCCCN)NC(=O)CNC(=O)[C@H](CC(N)=O)NC(=O)[C@H](Cc1ccc(O)cc1)NC(=O)[C@@H](NC(=O)[C@H](CC(C)C)NC(=O)[C@@H](N)C(C)C)[C@@H](C)O)C(=O)N[C@@H](CCC(=O)O)C(=O)N1CCC[C@H]1C(=O)N[C@@H](CC(N)=O)C(=O)N[C@@H](Cc1c[nH]c2ccccc12)C(=O)N[C@@H](C)C(=O)N[C@@H](CO)C(=O)O` [NS3 57-71], the values for the IC50 on DRB3*0101 and at DRB5*0101 were 5.43 µM and 3.76 µM, respectively.

Regarding `CSCC[C@H](NC(=O)[C@@H](NC(=O)[C@@H](NC(=O)[C@@H](NC(=O)[C@H](CS)NC(=O)CNC(=O)CNC(=O)[C@H](Cc1c[nH]cn1)NC(=O)[C@H](CCC(=O)O)NC(=O)[C@H](CC(C)C)NC(=O)[C@@H](NC(=O)[C@@H](NC(=O)[C@H](CC(=O)O)NC(=O)[C@@H](N)C(C)C)C(C)C)C(C)C)C(C)C)[C@@H](C)O)[C@@H](C)O)C(=O)N[C@@H](C)C(=O)O` [Envelope 21-35], the IC50 at DRB4*0101 amounted to 4.5 µM.

With `CC[C@H](C)[C@H](NC(=O)[C@H](CCC(=O)O)NC(=O)[C@H](C)NC(=O)[C@@H](NC(=O)[C@@H](NC(=O)CNC(=O)[C@@H](N)CCC(N)=O)C(C)C)[C@@H](C)O)C(=O)N[C@H](C(=O)N1CCC[C@H]1C(=O)N[C@@H](CCC(N)=O)C(=O)N[C@@H](C)C(=O)N[C@@H](CO)C(=O)N[C@H](C(=O)N[C@H](C(=O)N[C@@H](CCC(=O)O)C(=O)O)[C@@H](C)O)[C@@H](C)O)[C@@H](C)O` [Envelope 156-170], the IC50 against DRB4*0101 was found to be 0.707 µM.

Regarding `CC[C@H](C)[C@H](NC(=O)[C@H](CCCCN)NC(=O)[C@H](CCCCN)NC(=O)[C@H](CCC(=O)O)NC(=O)[C@H](CC(C)C)NC(=O)[C@@H]1CCCN1C(=O)[C@H](Cc1c[nH]cn1)NC(=O)[C@@H]1CCCN1C(=O)[C@H](CC(N)=O)NC(=O)[C@H](CCC(=O)O)NC(=O)[C@H](CC(C)C)NC(=O)[C@H](CC(=O)O)NC(=O)[C@H](C)NC(=O)[C@@H](N)CCCCN)C(=O)N[C@H](C(=O)N[C@@H](CCC(N)=O)C(=O)N[C@@H](Cc1c[nH]c2ccccc12)C(=O)O)[C@@H](C)O` [NS5 630-646], the results for the IC50 against DRB3*0101 and against DRB5*0101 were 13.7 µM and 15.5 µM, respectively.

As to `CC[C@H](C)[C@H](NC(=O)[C@@H](NC(=O)[C@H](CCCNC(=N)N)NC(=O)[C@H](CC(=O)O)NC(=O)[C@H](C)NC(=O)[C@H](CCCCN)NC(=O)[C@H](Cc1ccccc1)NC(=O)[C@H](CC(N)=O)NC(=O)[C@H](C)NC(=O)CNC(=O)[C@H](CCSC)NC(=O)[C@@H](N)CCC(=O)O)C(C)C)C(=O)N[C@@H](CC(=O)O)C(=O)N1CCC[C@H]1C(=O)N[C@@H](CCCNC(=N)N)C(=O)O` [NS3 413-427], the IC50 at DRB3*0101 is 0.096 µM; at DRB5*0101 it was 1.2 µM.

As to `CSCC[C@H](NC(=O)[C@@H](NC(=O)[C@H](CCC(N)=O)NC(=O)[C@H](Cc1ccccc1)NC(=O)[C@H](CC(N)=O)NC(=O)[C@H](CCCCN)NC(=O)[C@@H]1CCCN1C(=O)[C@H](CC(N)=O)NC(=O)[C@H](CCCCN)NC(=O)CNC(=O)[C@@H]1CCCN1C(=O)[C@@H](N)CCC(=O)O)[C@@H](C)O)C(=O)N1CCC[C@H]1C(=O)NCC(=O)N[C@H](C(=O)O)[C@@H](C)O` [NS3 101-115], the IC50 stood at 4.12 µM against DRB3*0101 and 1.08 µM against DRB5*0101.

EITPQASTTEAILPE [Envelope 161-175] showed an IC50 on DRB4*0101 of 16.6 µM. This counts as double-digit micromolar.

For `CC[C@H](C)[C@H](NC(=O)CNC(=O)[C@H](CO)NC(=O)CNC(=O)[C@H](CS)NC(=O)[C@H](CCCCN)NC(=O)[C@H](CC(C)C)NC(=O)[C@H](CCC(=O)O)NC(=O)[C@H](CCCCN)NC(=O)CNC(=O)[C@H](CCCCN)NC(=O)[C@H](Cc1c[nH]c2ccccc12)NC(=O)[C@H](CC(N)=O)NC(=O)[C@@H](NC(=O)[C@@H](N)C(C)C)[C@@H](C)CC)C(=O)O` [NS1 5-19], the IC50 was 6.3 µM against DRB3*0101 and 15.8 µM against DRB5*0101.

Consider `CC(C)C[C@H](NC(=O)CNC(=O)[C@H](CCC(=O)O)NC(=O)CNC(=O)[C@H](CCC(=O)O)NC(=O)[C@@H](NC(=O)CNC(=O)[C@H](CO)NC(=O)[C@H](Cc1ccc(O)cc1)NC(=O)[C@H](CO)NC(=O)[C@H](CC(N)=O)NC(=O)[C@H](CCC(=O)O)NC(=O)[C@H](CCCNC(=N)N)NC(=O)[C@H](CO)NC(=O)[C@H](Cc1ccccc1)NC(=O)[C@H](Cc1c[nH]c2ccccc12)NC(=O)[C@@H](N)Cc1c[nH]cn1)C(C)C)C(=O)O` [NS5 495-511], for which the IC50 against DRB3*0101 was 1.16 µM; against DRB5*0101, 0.723 µM.

With `CC[C@H](C)[C@H](NC(=O)[C@@H](NC(=O)[C@H](Cc1ccccc1)NC(=O)[C@H](CO)NC(=O)[C@H](CO)NC(=O)[C@H](CC(N)=O)NC(=O)[C@H](CCC(N)=O)NC(=O)[C@@H](NC(=O)[C@H](CCC(=O)O)NC(=O)[C@H](C)NC(=O)[C@@H](NC(=O)[C@@H](NC(=O)[C@@H](NC(=O)[C@H](CCCCN)NC(=O)[C@H](C)N)[C@@H](C)CC)C(C)C)[C@@H](C)O)[C@@H](C)O)[C@@H](C)CC)C(=O)O` [NS1 121-135], the IC50 stood at 1.24 µM on DRB3*0101 and 9.46 µM on DRB5*0101.

LPWTSGATTETPTWN [Envelope 216-230] gave an IC50 against DRB4*0101 of 11.6 µM. In other words, the double-digit micromolar range.

With `C[C@H](NC(=O)[C@H](Cc1c[nH]c2ccccc12)NC(=O)[C@@H](NC(=O)[C@H](CCCCN)NC(=O)[C@H](Cc1ccc(O)cc1)NC(=O)[C@@H]1CCCN1C(=O)[C@H](CC(N)=O)NC(=O)[C@H](CCC(=O)O)NC(=O)[C@H](CC(=O)O)NC(=O)[C@H](CC(=O)O)NC(=O)[C@H](Cc1ccc(O)cc1)NC(=O)[C@H](Cc1c[nH]cn1)NC(=O)[C@H](Cc1c[nH]c2ccccc12)NC(=O)[C@@H](N)[C@@H](C)O)[C@@H](C)O)C(=O)N[C@@H](Cc1ccc(O)cc1)C(=O)N[C@@H](Cc1c[nH]cn1)C(=O)NCC(=O)O` [NS5 290-306], the IC50 against DRB4*0101 came to 15.6 µM.

Turning to `CC[C@H](C)[C@H](NC(=O)[C@@H]1CCCN1C(=O)[C@H](CO)NC(=O)CNC(=O)[C@H](CO)NC(=O)[C@@H](NC(=O)CNC(=O)[C@@H]1CCCN1C(=O)[C@H](CCCCN)NC(=O)[C@H](Cc1ccccc1)NC(=O)[C@H](CC(=O)O)NC(=O)[C@H](CC(C)C)NC(=O)[C@H](C)NC(=O)[C@@H](NC(=O)[C@H](C)N)[C@@H](C)CC)[C@@H](C)O)C(=O)O` [NS3 125-139], the IC50 turned out to be 9.22 µM at DRB3*0101 and 4.35 µM against DRB5*0101.

With `CC[C@H](C)[C@H](NC(=O)[C@@H](NC(=O)[C@H](CCCCN)NC(=O)[C@@H](N)CCCCN)C(C)C)C(=O)N[C@@H](CCC(N)=O)C(=O)N[C@@H](CC(C)C)C(=O)N[C@@H](CO)C(=O)N[C@@H](CCCNC(=N)N)C(=O)N[C@@H](CCCCN)C(=O)N[C@H](C(=O)N[C@@H](Cc1ccccc1)C(=O)N[C@@H](CC(=O)O)C(=O)N[C@H](C(=O)N[C@@H](CCC(=O)O)C(=O)N[C@@H](Cc1ccc(O)cc1)C(=O)O)[C@@H](C)O)[C@@H](C)O` [NS3 381-395], the results for the IC50 at DRB3*0101 and against DRB5*0101 were 0.399 µM and 5.72 µM, respectively.

At DRB4*0101, `CC[C@H](C)[C@H](NC(=O)[C@H](C)NC(=O)[C@H](CCSC)NC(=O)[C@H](CCCNC(=N)N)NC(=O)[C@H](CCCCN)NC(=O)[C@H](CC(C)C)NC(=O)[C@H](CCCNC(=N)N)NC(=O)[C@H](CCC(=O)O)NC(=O)[C@@H](N)C(C)C)C(=O)N[C@@H](CO)C(=O)NCC(=O)N[C@@H](CC(=O)O)C(=O)N[C@@H](CC(=O)O)C(=O)N[C@@H](CS)C(=O)N[C@H](C(=O)N[C@H](C(=O)N[C@@H](CCCCN)C(=O)O)C(C)C)C(C)C` [NS5 652-668] yielded an IC50 of 0.618 µM.

Regarding `CC[C@H](C)[C@H](N)C(=O)N[C@@H](Cc1ccccc1)C(=O)N[C@@H](CCSC)C(=O)N[C@H](C(=O)N[C@@H](C)C(=O)N[C@H](C(=O)N1CCC[C@H]1C(=O)N1CCC[C@H]1C(=O)NCC(=O)N[C@H](C(=O)N[C@@H](C)C(=O)N[C@@H](CC(=O)O)C(=O)N[C@@H](C)C(=O)N[C@@H](Cc1ccccc1)C(=O)N1CCC[C@H]1C(=O)O)[C@@H](C)O)[C@@H](C)O)[C@@H](C)O` [NS3 313-327], the IC50 stood at 9.44 µM on DRB3*0101 and 13.9 µM against DRB5*0101.

For `CC[C@H](C)[C@H](NC(=O)[C@H](CC(C)C)NC(=O)[C@H](CCC(=O)O)NC(=O)[C@H](Cc1c[nH]cn1)NC(=O)[C@H](Cc1ccccc1)NC(=O)[C@H](Cc1c[nH]cn1)NC(=O)[C@H](Cc1c[nH]cn1)NC(=O)[C@H](CO)NC(=O)[C@H](CS)NC(=O)[C@H](Cc1ccccc1)NC(=O)[C@@H]1CCCN1C(=O)[C@@H](NC(=O)[C@H](CCC(N)=O)NC(=O)[C@H](CCC(N)=O)NC(=O)[C@H](Cc1c[nH]c2ccccc12)NC(=O)[C@@H](N)CC(=O)O)C(C)C)C(=O)N[C@@H](CCSC)C(=O)O` [NS5 702-718], the results for the IC50 against DRB3*0101 and against DRB5*0101 were 4.74 µM and 3.22 µM, respectively.
